pIC50: −log10 of the molar value.
system: Palmitoyl CoA oxidation; assay: Mitochondrial assay: palmitoyl CoA oxidation; type: biochemical; conditions: Rat heart mitochondria, 16 µM 1-14C palmitoyl CoA, 15 min at 30°C, 14C bicarbonate counted; read-out: PalmCoA IC50
Protocol: Rat heart mitochondria were isolated by the method ofNedergard and Cannon (Methods in Enzymol. 55, 3, 1979).
Palmitoyl CoA oxidation - The Palmityl CoA oxidation was carried out in a total volume of 100 µL containing the following agents: 110 mM KCl, 33 mM Tris buffer at pH 8, 2 mM KPi, 2 mM MgCl2, 0.1 mM EDTA, 14.7 µM defatted BSA, 0.5 mM malic acid, 13 mM carnitine, 1 mM ADP, 52 µg of mitochondrial protein, and 16 µM 1-14C palmitoyl CoA (Sp. Activity 60 mCi/mmole; 20 µCi/mL, using 5 µL per assay). The compounds of this invention were added in a DMSO solution at the following concentrations: 100 µM, 30 µM, and 3 µM. In each assay, a DMSO control was used. After 15 min at 30°C, the enzymatic reaction was centrifuged (20,000 g for 1 min), and 70 µL of the supernatant was added to an activated reverse phase silicic acid column (approximately 0.5 mL of silicic acid). The column was eluted with 2 mL of water, and 0.5 mL of the eluent was used for scintillation counting to determine the amount of ^14C trapped as ^14C bicarbonate ion.

Row | SMILES | pIC50
1 | Cc1nc2cc(OC[C@H](O)CN3CCN(CC(=O)Nc4nc(-c5ccc(Cl)cc5)cs4)C[C@@H]3C)ccc2s1 | 6.40
2 | CCn1c2ccccc2c2cc(NC(=O)CN3CCN(C[C@@H](O)COc4ccc5sc(C)nc5c4)CC3)ccc21 | 6.07
3 | Cc1nc2cc(OC[C@H](O)CN3CCN(CC(=O)Nc4cccc5cccnc45)CC3)ccc2s1 | 5.28
4 | Cc1nc2cc(OC[C@H](O)CN3CCN(CC(=O)Nc4nc(-c5ccc(Cl)cc5)cs4)CC3)ccc2s1 | 5.15
5 | Cc1nc2cc(OC[C@H](O)CN3CCN(CC(=O)Nc4ccc(Oc5ccccc5)cc4)CC3)ccc2s1 | 6.48
6 | O=C(CN1CCN(C[C@@H](O)COc2ccc3oc(-c4ccccc4)nc3c2)CC1)Nc1ccc2ncccc2c1 | 5.21
7 | O=C(CN1CCN(C[C@@H](O)COc2ccc3oc(-c4ccccc4)nc3c2)CC1)Nc1cccc(Oc2ccccc2)c1 | 5.07
8 | Cc1nc2cc(OC[C@H](O)CN3CCN(CC(=O)Nc4cccc5c4CCC5)CC3)ccc2s1 | 4.82
9 | Cc1nc2cc(OC[C@H](O)CN3CCN(CC(=O)N[C@@H](C)c4ccccc4)CC3)ccc2s1 | 5.36
10 | Cc1nc2cc(OC[C@H](O)CN3CCN(CC(=O)N[C@H]4CCCc5ccccc54)CC3)ccc2s1 | 7.10
11 | Cc1nc2cc(OC[C@H](O)CN3CCN(CC(=O)Nc4cccc(-c5ccccc5)c4)CC3)ccc2s1 | 6.74
12 | Cc1nc2cc(OC[C@H](O)CN3CCN(CC(=O)N[C@@H](C)c4ccc5ccccc5c4)CC3)ccc2s1 | 6.07

Source: patent publication EP1806346B1, “Substituted piperazine compounds and their use as fatty acid oxidation inhibitors” (CV THERAPEUTICS, INC., priority 2002, dated 2004)
